One compound from paper PMC12097015, “Development of MDM2‐Targeting PROTAC for Advancing Bone Regeneration” (Advanced Science, 2025) can be followed below.

As usually defined, the Kd is the equilibrium constant for the complex coming apart.

Structures are written as SMILES.

In test [1] the test system is hBMSCs. Description: Bulk RNA-seq of cultured hBMSCs. To be noted: CL144 versus Nutlin‐3. The class given is cell-based, human. An excerpt:
‐Sample Preparation: In accordance with the manufacturer's instructions, total RNA was extracted using Trizol from hBMSCs treated with Nutlin‐3 or CL144 as well as from control cells. Utilizing an Agilent Bioanalyzer RNA ScreenTape kit (Agilent, 5067–5576), the integrity of the RNA (RIN) was verified. All samples with RIN value > 8.0 were used for sequencing.
‐Library Construction: RNA‐seq libraries were constructed according to the manufacturer's instructions for the SRSLY Library Prep kit, which were provided by Claretbio (CBS‐K155B‐24). […] This work fragmented and enriched the mRNA using oligo (dT). After ligating the cDNA fragments to adapters, PCR amplification was performed.
‐Sequencing: The libraries were performed to sequencing on the Nextseq2000 (Illumina) platform, utilizing the SRSLY RNA NanoPlus kit to generate 100 bp paired‐end reads.
‐Data Analysis: FastQC was used to trim the adaptor sequences and remove low‐quality reads from the raw sequencing data (FASTQ files). After that, Hisat2 v2.2.1 was used to align these clean reads with the Human Genome Reference GRCh38. DESeq2 was used for differential expression analysis, while g: Profiler was used for GO enrichment analysis.

Test [2] concerns hBMSCs. Description: Alizarin Red S (ARS) staining of hBMSCs under osteogenic differentiation. The class given is cell-based, human. To be noted: osteogenic differentiation conditions. As to the method:
To induce osteogenic differentiation, the cells were seeded in confluent plates and cultured in osteogenic induction medium the following day. The differentiation medium was prepared by adding 10 mM β‐glycerophosphate (Sigma‐Aldrich, G9422), 50 µM ascorbic acid (Sigma‐Aldrich, A4403), and 0.1 µM dexamethasone (Sigma‐Aldrich, D4902) to the culture medium. The cells were treated with MDM2 inhibitors, Nutlin‐3 (Sigma‐Aldrich, N6787) or CL144 in an osteoinductive medium and incubated for 10–14 days to induce osteogenic differentiation. The differentiation medium was changed every 2–3 days (The list of MDM2 inhibitors used is shown in Figure 1A and presented in Table S1, Supporting Information).
Following osteogenic differentiation for the indicated number of days, the cells were fixed in 70% ethanol for 3 min at room temperature or in 4% PFA (Tech & Innovation, BPP‐9004) for 30 min at room temperature, washed with distilled water, and stained with 2% Alizarin Red S (Sigma‐Aldrich; pH 4.2, A5533) for 30 min.

Another test concerns osteocalcin (OCN). The test is described as follows: Immunostaining of osteogenic markers in hBMSCs. It is filed as cell-based, human. To be noted: 10 µM.
A further test concerns rabbit calvaria. The test is described as follows: Rabbit calvarial vertical onlay graft model. To be noted: eight weeks, CL144 10 μΜ or rhBMP‐2 3.85 μΜ soaked on BCP carrier. It is filed as in vivo, New Zealand white rabbits.
Test [3] relates to OVX-induced osteoporosis model. The test is described as follows: Ovariectomy (OVX)-induced osteoporosis mouse model. To be noted: OVX mice. The class given is in vivo, C57BL6 mice. As to the method: -Establishment of Ovariectomized Mice Model: The experimental protocols were approved by the IACUC (Approval code: IACUC230118) at the CHA Laboratory Animal Research Center. The mice were handled in compliance with the Guidelines for the Care and Use of Animals at the institution. Female C57BL6 mice (seven weeks old (n = 57)) were randomly divided into six groups (n = 8-10): […] All surgeries and pump implantations were performed under aseptic conditions. Mice were anesthetized before removing both sides of the ovaries. In the fourth week following surgery, an Alzet osmotic pump (Durect Corp, #1004) was implanted in the mice. […] Images were acquired at an effective pixel size of 50 μm (130 kV and 60 μA radiation source; 1.0 mm aluminum filter). Subsequently, 3D images were reconstructed from the 2D X-ray projections by implementing the Feldkamp algorithm, and appropriate image corrections, including ring artifact correction, beam hardening correction, and fine-tuning, were processed using NRecon software (SkyScan 1173, Belgium). The dynamic image range (contrast limits) was determined at 0-0.3 in units of attenuation coefficient and was applied to all datasets for optimum image contrast. After acquisition and reconstruction of the datasets, images were first reoriented on each 3D plane using DataViewer software (SkyScan 1173, Belgium) to align the long axis of the femur parallel to the coronal and sagittal planes. Next, 3D morphometric analyses of the distal femur and body of the lumbar vertebrae were performed using CT-Analyzer software (SkyScan 1173, Belgium). Regarding the region of interest (ROI), this work analyzed the 1.5 mm […] trabecular bone of the distal femur metaphysis, excluding the growth plate. The ROIs were delineated using a freehand drawing tool while maintaining a […] clearance from the endosteal surface. […] A global threshold of 60 (1.01573 g cm^-3) was applied to all scans to extract a physiologically accurate representation of the trabecular bone phase. […] All quantitative and structural parameters followed the nomenclature and units recommended by the American Society for Bone and Mineral Research (ASBMR) Histomorphometry Nomenclature Committee. After data quantification,^[ [26b] ^] 3D rendered images were generated to visualize the analyzed regions using the marching cube method. -H&E staining: Following decalcification, the specimens were fixed in paraffin and longitudinally sliced to a thickness of 3 μm using a microtome. Subsequently, each sample was affixed to a slide and exposed to a temperature of 55 °C. […] The slides underwent a 1 min wash in flowing purified water and immersed in Harris hematoxylin-I for 5 min, followed by a 1 min wash under flowing tap water. Sections were briefly immersed in ammonia water for 30 s and washed with tap water for 3 min. Subsequently, the sections were stained with Eosin Y for 2 min and 30 s, followed by gradual drying in 95%-100% ethanol. Any residual stain was rinsed with distilled water and each section was mounted. -Masson's trichrome staining: Following deparaffinization and hydration, the sections underwent treatment with a mordant containing a 5% iron alum solution in a dry oven at 56 °C for 30 min. Sections were washed under running tap water for 5-6 min to remove picric acid. Sections were stained with Weigert's iron hematoxylin solution for 10 min, followed by rinsing with purified water. A 5 min staining with Biebrich scarlet-acid fuchsin solution ensued, succeeded by washing with purified water. The sections were immersed in a phosphomolybdic-phosphotungstic acid solution for 5 min. After discarding the solution, the sections were washed with distilled water. Differentiation was performed in 1% glacial acetic acid solution for 3 min. The solution was discarded, and the remaining stain was washed with distilled water.

For another test, the target named is MDM2 (Homo sapiens, UniProt Q00987). Description: Microscale thermophoresis (MST) binding assay. The arrangement: made in house; host or cells: E. coli BL21 (DE3). To be noted: His-Tag MDM2, n = 3, read-out: dissociation constant (Kd). In general terms: MST reads how a fluorescent partner responds to local heating, with and without ligand.
MDM2, sequence (Q00987 whole entry, species assumed): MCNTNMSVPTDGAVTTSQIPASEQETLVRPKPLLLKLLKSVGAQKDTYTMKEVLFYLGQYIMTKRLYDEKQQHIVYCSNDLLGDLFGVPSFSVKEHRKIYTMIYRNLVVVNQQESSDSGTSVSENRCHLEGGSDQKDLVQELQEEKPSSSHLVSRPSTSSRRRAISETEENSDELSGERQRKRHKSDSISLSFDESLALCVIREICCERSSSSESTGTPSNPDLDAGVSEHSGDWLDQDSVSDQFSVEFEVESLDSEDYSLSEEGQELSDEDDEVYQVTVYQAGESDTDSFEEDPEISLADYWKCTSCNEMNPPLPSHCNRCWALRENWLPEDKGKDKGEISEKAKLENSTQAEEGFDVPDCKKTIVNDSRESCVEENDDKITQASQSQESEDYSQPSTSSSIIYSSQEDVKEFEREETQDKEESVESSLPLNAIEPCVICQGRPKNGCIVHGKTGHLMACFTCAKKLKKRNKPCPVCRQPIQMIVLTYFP
The mark [4] stands for this setting: 0.5 mg kg^−1, osmotic pump 28 days.
The mark [5] stands for this setting: 0.5 mg kg^−1, same concentration of Nutlin‐3.

Protocol for MDM2: E. coli BL21 (DE3) competent cells transformed with pSPEL870 were used to express MDM2 protein.^[ [27] ^] The recombinant strain was cultured in 500 mL 2XYT at 37 °C until the optical density (OD600 ) reached 0.5. Protein expression was induced by adding 0.2 mM isopropyl β‐D‐1‐thiogalactopyranoside (IPTG; Bioshop, Canada) at 20 °C overnight. […] The protein was purified using Ni‐NTA resin (Qiagen, Germany), according to the manufacturer's protocol. The purified protein was buffer exchanged with phosphate‐buffered saline (PBS, pH 7.4) using a centrifugal filter unit (MWCO: 10 K; Merck Millipore, USA). The protein was stored at –20 °C in PBS with 20% glycerol and 1 mM dithiothreitol (DTT).
The His‐Tag MDM2 protein was labeled using a His‐Tag Labeling Kit RED‐tris‐NTA second Generation (NanoTemper, MO‐L018) according to the manufacturer's instructions. […] The final mixtures were transferred to capillaries (NanoTemper, MO‐K022) and the samples were measured using a Monolith NT.115Pico (NanoTemper) instrument (auto LED power; medium MST power). […] The signals were represented as normalized changes in fluorescence (Fnorm ) upon ligand binding. Baseline‐corrected normalized fluorescence (DFnorm ) was obtained from Fnorm values using MO Affinity Analysis, and the dissociation constants (Kd ) were determined by curve fitting (variable slope model) using GraphPad Prism 10.
Protocol for rabbit calvaria: Total six male, New Zealand white rabbits, weighing ≈2.8–3.2 kg were used for the rabbit calvaria onlay graft model. Rabbits were kept in separate cages under standard laboratory conditions with free access to food and water and provided standard meals according to the ARRIVE guidelines. The animals were sacrificed eight weeks postoperatively (n = 6), and each rabbit was divided into three different groups. […] General anesthesia was induced by injecting 65 mg kg^−1 ketamine (Ketalar, Yuhan, Korea) and xylazine (Rompun, Bayer, Korea). A full‐thickness flap was raised under local anesthesia with 2% lidocaine and 1:100 000 epinephrine to expose the calvarial bone. Slits around the sagittal suture were prepared using a trephine bur (7 mm in diameter, 1 mm in depth), and then four perforations of the external cortical bone plate were made. […]
‐Radiographic analysis: A single‐blinded examiner conducted all the measurements. […] The volume of the newly formed bone within the cylinders was measured.
The embedding paraffin blocks were then sectioned into 4 µm thick slices and stained with Masson trichrome. […] Within the cylinder, the total augmented area, area and proportion of newly formed bone, and residual graft materials were measured as previously described.^[ [34] ^]

Take `COc1ccc(C2=N[C@H](c3ccc(Cl)cc3)[C@H](c3ccc(Cl)cc3)N2C(=O)N2CCN(CC(=O)NCCCCCCCCOc3cccc4c3C(=O)N(C3CCC(=O)NC3=O)C4=O)C(=O)C2)c(OC(C)C)c1` (stereo in doubt) [CL144]: in the test with hBMSCs [1], the “COL8A2 expression (log2FC)” value worked out at 6.02 and the “COL11A1 expression (log2FC)” value is 6.23. Further, the “biomineralization / osteogenic potency (ARS staining)” value in the test on hBMSCs [2] was “significantly enhanced biomineralization”. Moreover, the “osteocalcin (OCN) protein intensity compared to the control group” value in the test on osteocalcin (OCN) is “no statistically significant difference”. Also, the “amount of new bone (histomorphometric analysis)” value in the test with rabbit calvaria was determined as 25.58 ± 11.70%. Further, in test [3] (0.5 mg kg^−1), the “regenerative effect compared with alendronate” value was “results comparable to those of the alendronate‐treated group”. In test [3] (setting [4]), the “recovery in BV/TV compared to the OVX group” value was found to be 65% and the “recovery in Tb.N compared to the OVX group” value came out at 58%. For the same compound, in test [3] (setting [5]), the “improvement in BV/TV compared to the Nutlin‐3 group” value is 56% and the “improvement in Tb.N compared to the Nutlin‐3 group” value is reported as 61%. Also, the “recovery in BMD compared to the OVX group” value in test [3] (1 mg kg^−1, osmotic pump 28 days) was 12%. Further, the “improvement in BMD compared to the Nutlin‐3 group” value in test [3] (1 mg kg^−1, same concentration of Nutlin‐3) is reported as 13%. Further, in test [3] (tibia and femur tissues), the “bone histology (H&E staining) versus OVX group” value was “newly formed trabecular structures were observed”. The dissociation constant Kd at MDM2 turned out to be 1.12 µM.
